This note sets out measurements from US20160128952A1, “Pharmaceutical Combination” (Gruenenthal GmbH, priority 2006, published 2016).

For orientation: ED50 means the dose that gives a 50% effect, or the effect in half of the subjects.

The test has as its system inflammatory pain. Briefly: Randall-Selitto test in rats (carrageenin-induced paw oedema, pressure pain). It is filed as in vivo, rat. As to the method:
The weight ratios of the components (a) and (b) that will lead to a supra-additive effect (synergistic effect) of the inventive pharmaceutical composition may be determined via the test of Randall and Selitto as described in Arch. Int. Pharmacodyn., 1957, 111: 409 to 419, which is a model for inflammatory pain. The respective part of the literature is hereby incorporated by reference and forms part of the present disclosure.
By means of injection of 0.1 ml of Carrageenin-suspension ventrally into a hind paw of a rat an oedema is induced, on which pain is generated 4 hours later by continuously increasing pressure with a stamp (2 mm tip diameter). The antinociceptive and antihyperalgesic activity of the tested substance is determined at different points in time after administration of the substance. The measured value to be determined and at the same time also the end point of the pain test is the pressure at which the vocalisation reaction of the rat occurs. The percentage maximum possible effect (%MPE) is calculated. The maximum pressure of the stamp is 250 g. The group size is n=10.
The interactions studies presented herein were performed using equieffective doses of the two components, calculated from the ratio of the respective ED50 values of the components if administered alone. […]
In general terms: The carrageenan paw model is a standard test of acute inflammation.

For `CC[C@@H](c1cccc(O)c1)[C@@H](C)CN(C)C` [A, (1R,2R)-3-(3-Dimethylamino-1-ethyl-2-methyl-propyl)-phenol], the ED50 (Rattus norvegicus, iv, 0.25 h, i.v., 15 min p. appl. (peak effect), %MPE, vocalisation pressure, n=10, read-out: ED50 (confidence interval) of A applied alone) turned out to be 1.88 mg/kg. Consider `CC(=O)Nc1ccc(O)cc1` [Paracetamol], for which the “analgesic effect (in words)” value (Paracetamol alone, i.p.) is listed as “dose-dependent analgesic effect”.
